The text below walks through data of US20220323443A1, “COMBINATION THERAPY FOR CANCER TREATMENT” (TAKEDA PHARMACEUTICAL COMPANY LIMITED, priority 2019, published 2022).

“Also recorded” adds a separate entry of the source.

Experiment [1] deals with B16F10 (Melanoma). As to the kind of experiment: In vivo combination study, syngeneic mouse tumor isograft model. As to conditions: note to Table 9.
In experiment [2] the test system is repair of IR-induced DSBs in HeLa cells. Nature of the experiment: 53BP1 foci assay of irradiation-induced DNA double-strand breaks. In kind it is cell-based, human. The protocol:
Human cervical adenocarcinoma HeLa cells were treated with or without Compound 1 treatment at 300 nM, followed by irradiation (IR) treatment at 4 Gy using an X-ray irradiator (MBR-1520R-3, Hitachi Power Solutions Co., Ltd., Ibaraki). Eight or forty-eight hours after IR treatment, the cells were fixed with 4% paraformaldehyde for the following immunofluorescent experiments. Foci formation of 53BP1 was used as an index of IR-induced DSBs. After permeabilization, the cells were incubated with anti-53BP1 antibody (2 μg/ml) for 60 min at 37° C., and then incubated with Alexa-594-conjugated secondary antibody for 30 min at 37° C. Images were captured with an Axiovert 200M microscope (Carl Zeiss).

In experiment [3] the test system is CT26 Mouse syngeneic colon tumor model. As to the kind of experiment: In vivo combination study, syngeneic mouse tumor isograft model. As to conditions: note to Table 9.
The test system of experiment [4] is homologous recombination (HR) repair in 293T cells. As to the kind of experiment: Homologous recombination (HR) repair assay, DR-GFP / I-SceI reporter, flow cytometry. The class given is cell-based, human. As to conditions: 300 nM Compound 1, 72 hours after transfection. The protocol: The efficiency of homologous recombination (HR) was assessed using an I-SceI expression plasmid (I-SceI) and an I-SceI repair reporter plasmid (DR-GFP) composed of two differentially mutated GFP genes, one of which contained a unique I-SceI restriction site (FIG. 1A). The assay works through gene conversion repair of a double strand break caused by I-SceI digestion. DR-GFP plasmids repaired by homologous recombination express GFP. Human embryonic kidney 293T cells were transfected with either 5 μg of DR-GFP plus 10 μg of I-SceI in presence (300 nM) or absence of Compound 1. Seventy-two hours after transfection, the cells were fixed with 4% paraformaldehyde for 20 min at room temperature, and the number of GFP-expressing cells was assessed by flow cytometry (FIGS. 1B and 1C).
A general note: A flow cytometer gives signals particle by particle.

In experiment [5] the test system is RNASEH2A knockout (KO) TK-6 cells and parental TK-6 cells. As to the kind of experiment: In vitro growth inhibition assay, Cell Titer-Glo, 72 hours. In kind it is cell-based. As to conditions: FIG. 9. The protocol:
To determine further whether RNASEH2A is involved in the sensitization to compound 1, in vitro growth inhibition assay of compound 1 was carried out in RNASEH2A knockout (KO) TK-6 cells and its counterpart parental TK-6 cells. RNASEH2A KO TK-6 cells and its counterpart parental TK-6 cells were obtained from Kyoto University under a material transfer agreement. The cell lines were cultured in RPMI-1640 medium (FUJIFILM Wako Pure Chemical Corporation, Osaka, JAPAN) supplied with 10% Fetal Bovine Serum (CORNING Inc., NY, USA), sodium pyruvate (FUJIFILM Wako Pure Chemical Corporation, Osaka, JAPAN), and Penicillin-Streptomycin (FUJIFILM Wako Pure Chemical Corporation, Osaka, JAPAN). Stock solutions of compound 1 were prepared in dimethyl sulfoxide (DMSO), and stored at approximately −20 deg C.
Cell proliferation was measured by using Cell Titer-Glo Luminescent Cell Viability Assay (Promega, WI, USA.). The CellTiter-Glo Luminescent Cell Viability Assay is a homogeneous method of determining the number of viable cells in culture based on quantitation of the ATP present, which signals the presence of metabolically active cells. […] Luminescence of each well was measured by EnVision™ (PerkinElmer Inc., MA, USA). Taking as 100% the ATP content for the DMSO treatment control group, the ratio of the residual ATP content for each treatment group was determined. […]
For orientation: In ATP-based viability assays light output follows the ATP content of the culture.

Take `Cc1[nH]ncc1-c1cc2nc([C@@H]3CC4CCN3CC4)[nH]c(=O)c2s1` [Compound 1, 2-[(2S)-1-azabicyclo[2.2.2]oct-2-yl]-6-(3-methyl-1H-pyrazol-4-yl)thieno[3,2-d]pyrimidin-4(3H)-one]: the CR per group in experiment [1] (by note order: Anti-mPD-1 study in B16F10 (67 mm^3)) is 0 CR in PD-1 group and 0 CR in Compound 1 group, and 0 CR in Compound 1/PD-1 combo group; in experiment [1] (by note order: NKTR-214 + anti-mPD-1 study in B16F10 (67 mm^3)) it was 0 CR in NKTR-214 + PD-1 group, and 0 CR in Compound 1 group, and 0 CR in Compound 1/NKTR-214/PD-1 triple combo group; in experiment [1] (by note order: NKTR-214 study in B16F10 (67 mm^3)), “no CR”; in experiment [3] (by note order: Anti-mCTLA-4 study in CT26 (40 mm^3)), 0; in experiment [3] (by note order: Anti-mCTLA-4 study in CT26 (50 mm^3)), 0; in experiment [3] (by note order: Anti-mPD-1 study in CT26 (40 mm^3)), 0. In addition, the CR per group in experiment [3] (by note order: Anti-mPD-1 study in CT26 (50 mm^3)) is on record as 0; in experiment [3] (by note order: Anti-mPD-1 study in CT26 (64 mm^3)), “no CR”; in experiment [3] (by note order: NKTR-214 + anti-mPD-1 study in CT26 (64 mm^3)), “no CR”; in experiment [3] (by note order: NKTR-214 study in CT26 (64 mm^3)), “no CR”. In addition, in experiment [2] (300 nM Compound 1 + IR 4 Gy, HeLa cells), the “repair of IR-induced DSBs” value is “delays repair of IR-induced DSBs; also recorded: delays repair of irradiation induced double-strand breaks (DSBs)”. Also, the “53BP1 foci-positive cells (≥10 foci/cell)” value in experiment [2] (co-treated with IR 4 Gy and Compound 1 300 nM, 48 h after IR treatment, HeLa) is recorded as “still observed with high frequency”. The “HR repair activity (GFP-expressing cells)” value in experiment [4] is “suppresses HR repair activity”. In experiment [5], the “sensitivity (growth inhibition) of RNASEH2A KO TK-6 cells versus WT TK-6 cells” value is reported as “more sensitive”.
